Data: PubChem BioAssay (NCI)
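Dose response: 5 concentrations. Exposure: 48 h. Format: 96-well plates. Endpoint: linear interpolation; highest concentration if not reached. Definition used: TGI = concentration required for complete inhibition of growth.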

Tests used:
Experiment in all cases: NCI-60 cell line screen, 48 h
SNB-75 CNS = test system: SNB-75 CNS
NCI-H226 lung = test system: NCI-H226 lung
KM12 colon = test system: KM12 colon
IGROV1 ovarian = test system: IGROV1 ovarian
SF-539 CNS = test system: SF-539 CNS
SK-MEL-5 melanoma = test system: SK-MEL-5 melanoma
HT29 colon = test system: HT29 colon
NCI-H522 lung = test system: NCI-H522 lung
HOP-62 NSCLC = test system: HOP-62 NSCLC
TK-10 renal = test system: TK-10 renal
SK-OV-3 ovarian = test system: SK-OV-3 ovarian
OVCAR-8 ovarian = test system: OVCAR-8 ovarian
M14 melanoma = test system: M14 melanoma
MDA-MB-435 = test system: MDA-MB-435
DU-145 prostate = test system: DU-145 prostate
HCT-15 colon = test system: HCT-15 colon
PC-3 prostate = test system: PC-3 prostate

SMILES	TGI (SNB-75 CNS) [µM]	TGI (NCI-H226 lung) [µM]	TGI (KM12 colon) [µM]	TGI (IGROV1 ovarian) [µM]	TGI (SF-539 CNS) [µM]	TGI (SK-MEL-5 melanoma) [µM]	TGI (HT29 colon) [µM]	TGI (NCI-H522 lung) [µM]	TGI (HOP-62 NSCLC) [µM]	TGI (TK-10 renal) [µM]	TGI (SK-OV-3 ovarian) [µM]	TGI (OVCAR-8 ovarian) [µM]	TGI (M14 melanoma) [µM]	TGI (MDA-MB-435) [µM]	TGI (DU-145 prostate) [µM]	TGI (HCT-15 colon) [µM]	TGI (PC-3 prostate) [µM]
C/C(CC(=O)Nc1cc(C)ccc1C)=N\NC(=O)c1ccncc1	> 100	> 100	> 100	> 100	> 100	> 100	> 100	> 100	> 100	> 100	> 100	> 100	> 100	–	–	–	–
CCOCc1c(C)cc(C)c(C2C(C(=O)c3ccccc3)N3c4ccccc4C=CC3C2(C#N)C(=O)OCC)c1C (configuration not stated)	–	–	54.9	46.5	–	33.2	> 100	–	–	–	–	–	> 100	> 100	> 100	> 100	> 100
O/N=C/c1ncccc1C1OCCO1	> 100	> 100	> 100	> 100	> 100	> 100	> 100	> 100	> 100	> 100	> 100	> 100	> 100	–	–	> 100	–
Cc1ccc(NC(=O)CC(=O)n2nc(C)c(N=Nc3ccccc3C(=O)O)c2C)cc1	> 100	–	> 100	> 100	> 100	> 100	> 100	> 100	> 100	> 100	> 100	> 100	> 100	–	–	> 100	–
O=C(NC12CC3CC(CC(F)(C3)C1)C2)c1ccccc1	> 100	–	> 100	> 100	> 100	–	> 100	> 100	> 100	> 100	> 100	> 100	> 100	–	–	–	–
O=C1c2ccccc2C(=O)c2c1cc(S(=O)(=O)O)c(O)c2O	> 100	> 100	> 100	> 100	> 100	–	> 100	> 100	> 100	> 100	> 100	> 100	> 100	–	–	> 100	–
COc1cc(/C=C2/SC(c3ccccc3)N(c3ccccc3Cl)C2=O)cc(OC)c1OC (configuration not stated)	–	> 100	> 100	–	36.6	33.6	–	32.3	> 100	> 100	63.4	> 100	> 100	> 100	> 100	> 100	–
CC1(C)C2CCC(CN)(C2)C1N (configuration not stated)	> 100	> 100	> 100	> 100	> 100	> 100	> 100	–	> 100	> 100	> 100	> 100	> 100	> 100	> 100	> 100	> 100
COc1ccc(/C=C2\CCC(C)C3C2=NN(c2ccccc2)C3c2ccc(OC)c(OC)c2)cc1OC (configuration not stated)	6.37	12.9	6.46	8.23	7.49	9.68	18.3	–	–	6.93	20.2	25.3	43.3	> 100	12.7	9.92	51.6
COc1ccc(C(=O)c2sc(N(C)C)nc2-c2ccccc2)cc1	80.1	> 100	73	> 100	> 100	> 100	> 100	–	> 100	> 100	71.8	–	> 100	52	> 100	> 100	> 100
O=C(O)c1ccccc1/C=N/NC1=NCCN1	> 100	> 100	> 100	> 100	> 100	> 100	> 100	> 100	> 100	> 100	> 100	> 100	> 100	> 100	–	> 100	> 100
NC(=S)N1N=C2c3ccccc3CC[C@@H]2[C@@H]1c1ccccc1	35.6	45.6	31	> 80.3	22.3	27.1	15.6	4.53	> 59.1	> 68	33.9	72.3	31.1	–	–	24.6	–
CC1OC(OC2C(OC(=O)[C@]34CCC(C)(C)CC3C3=CCC5[C@@]6(C)C[C@H](O)[C@H](OC7OC(CO)C(O)C(O)C7N)[C@@](C)(C(=O)O)C6CC[C@@]5(C)C3(C)CC4)OCC(O)C2O)C(O)C(O)C1OC1OCC(O)C(O)C1O (some centres not stated)	> 100	> 100	> 100	> 100	> 100	> 100	> 100	> 100	> 100	> 100	> 100	> 100	–	–	–	> 100	–
CCOC(=O)c1c(NC(=O)c2cccs2)sc2c1CCC2	26.2	> 100	> 100	> 100	> 100	> 100	> 100	–	> 100	> 100	–	> 100	> 100	–	> 100	> 100	> 100
CCOC(=O)N(NC(=O)NC(C)C)c1ccccc1	> 100	> 100	> 100	> 100	> 100	> 100	> 100	–	> 100	> 100	> 100	> 100	> 100	–	–	> 100	> 100
NCCCCC(NC(=O)C(N)Cc1ccc(O)cn1)C(=O)O (configuration not stated)	–	> 100	> 100	> 100	> 100	> 100	> 100	> 100	> 100	> 100	–	> 100	–	> 100	> 100	> 100	> 100
